Where “and” joins values, the source holds several entries; their conditions need not be identical. Equal entries are not always repeated. Where two headings read alike, the source gives them in different places.
How the values were obtained:
[1] = test system: dog; conditions: intravenous injection, compared with (R,S)-isoproterenol; cited from earlier work
[2] = target: T1, bovine serum albumin (BSA) with D-ribose (Bos taurus, UniProt P02769); assay: Maillard fluorescence-based anti-glycation assay; conditions: in vitro anti-glycation; for IC50: BSA 0.075 mM, D-ribose 50 mM, 37° C., 5 days; for Imax: maximum inhibition of Maillard fluorescence
Procedure: (§3) The Maillard fluorescence-based assay was used to screen anti-glycation activity of approximately 1,300 drugs or drug candidates. […] Briefly the assay involved incubation of bovine serum albumin (BSA) (0.075 mM) with D-ribose (50 mM) and an assay compound (0.47, 4.7 and 47 μg/mL). Solutions were incubated at 37° C. for 5 days.

[3] = test system: human corneal epithelial cells (HCEC cells); conditions: human cornea epithelial cells, under the microscope
Procedure: HCEC cells were grown in EpiLife medium supplemented with human corneal growth supplements (HCGS; Cascade Biologics). The cells were maintained at 37° C. in a humidified atmosphere containing 5% CO2 and the medium was changed every other day. HCEC cells were seeded onto 96-well plates at a density of approximately 10^3 cells/well and cultivated for one day. […] The medium was aspirated and the treatments were applied to the cells (in triplicates) for different incubation times (5 minutes to 2 hours and 24 hours). At the end of the incubation times, the survival of the cells was visually examined under microscope.

[4] = test system: PC12 cells; assay: Cytotoxicity in PC12 cells (MTT assay); assay type: cell-based
Procedure: The cytotoxicity of (S)-isoproterenol dipivalate was measured by using PC12 cells. […] PC12 cells were seeded onto rat-tail collagen coated 96-well plates at a density of 2×10^4 cells/well and cultivated for one day. On the day of the experiment, dilutions of (S)-isoproterenol dipivalate ranging from 100 μM to 10 mM were prepared in complete medium. […] At the end of the incubation times, the medium was aspirated and 100 μL of a solution of MTT (3-(4,5-dimethylthiazol-2-yl)-2,5-diphenyltetrazolium; 0.2 mg/ml in complete medium) was added to the cells. After incubation at 37° C. for 2 hours, MTT was removed and the colored formazan was dissolved in dimethyl sulfoxide (DMSO) (½ hour at 37° C.). Reduction was measured by colorimetric detection (595 nm) of the blue insoluble formazan product. This assay provides an estimate of the number of functioning mitochondria present in the cells; i.e. the quantity of formazan product is directly proportional to the number of metabolically active cells in the culture. The viability of PC12 cells in each well was presented as percentage of control cells.

[5] = test system: Streptozotocin-injected diabetic rats; assay: Diabetic cataract initiation and progression in Streptozotocin-injected rats, eye drops; assay type: in vivo, rat; conditions: for Time entered in level 4 / Time stayed in level 0 / Time stayed in level 1 / Time stayed in level 2 / Time stayed in level 3: individual diabetic rats with drug; for Time entered in level 4 / Time stayed in level 0 / Time stayed in level 1 / Time stayed in level 2 / Time stayed in level 3 / Time stayed in level 0 (cataract initiation), Av ± STD / Time stayed in level 1, Av ± STD / Time stayed in level 2, Av ± STD / Time stayed in level 3, Av ± STD: hydrochloride; for Time stayed in level 0 (cataract initiation), Av ± STD / Time stayed in level 1, Av ± STD / Time stayed in level 2, Av ± STD / Time stayed in level 3, Av ± STD: diabetic rats with drug, n=17, both eyes; for Time stayed in level 0 (cataract initiation), Av ± STD: 0.10% eye drop twice a day
Excerpt: A rat model was used to study the effect of (S)-isoproterenol on diabetic cataract, that of streptozotocin-injection to induce diabetes by destroying the β-cells of the pancreas. This model has been widely used to study diabetes-related pathological events and their possible treatments (Dagher et al., 2004; Ben-nun et al., 2004; Chung et al., 2005). The rat model has an advantage of rapid formation of diabetic cataract such that initial cataract was observed as early as 8-9 weeks in the majority of the control diabetic rats. Two-month-old male Sprague-Dawley rats were purchased from Charles River, Canada. They were housed in the Biotechnology Research Institute (BRI)—animal facility. Housing and all experimental manipulations were approved by the BRI Animal Care Committee that functions under the guidelines of the Canadian Council of Animal Care.
(§1) The pH of the eye drop was adjusted to 5.5 with 1N—HCl. […] The eye drop was freshly prepared every month and was stored at 4° C. […] The size of each eye drop was 50 μL.
Diabetes was induced in male Sprague-Dawley rats weighing approximately 200 to 250 g by a single intraperitoneal injection of the beta-cell toxin, Streptozotocin (STZ) (Sigma, St. Louis, […].), at a dose of 60 mg/kg body weight in 0.1M citrate buffer pH 4.5. Non-diabetic control rats received citrate buffer only.
(§2) Eye drops or vehicle were administered twice a day, seven days a week, on the cornea of different groups of rats, with a minimum interval of 7 h between the two treatments. To promote weight gain and limit hyperglycemia, diabetic rats were injected sub-cutaneously with 2 IU ultralente insulin (Humulin, Eli Lilly, Toronto, ON, Canada) three times a week. Animal weights were monitored every week.
Cataract progression was monitored by visual examination, twice a week. A scoring system was devised to evaluate the severity of the cataract. A healthy eye was given a score of 0 (normal level); when a faint pinkish hue was discernable (level 1), cataract formation was in its earliest stage of being visually detected and this stage was given a score of 1. When a white film is clearly detectable (level 2), a score of 2 was assigned. When the film covers the entire eye, but the pupils are still visible (level 3), a score of 3 was assigned, and finally the cataract was considered most severe (score of 4) when the pupil was not detected due to the formation of the white film (level 4).

[6] = test system: PC12 cells; assay: Anti-oxidant activity against oxidative stress by H2O2 at the cellular level; assay type: cell-based; conditions: 10-100 μM; H2O2 killed over 80% of the PC12 cells
Excerpt: Glycation includes oxidative processes and is closely related to oxidative stress. […] The oxidative stress by H2O2 induces apoptosis in vitro and in vivo, and effective anti-oxidants such as N-acetyl-cysteine reduces the oxidative stress and protects the cells from the apoptosis.

[7] = Storage stability of the eye drop (HPLC profiles); assay type: physicochemical; conditions: eye drop pH 5.5, one month of storage at 4° C.
Procedure: as §1

[8] = test system: human eyes; conditions: cited from earlier work
[9] = large intravenous dose; cited from earlier work
[10] = Body weight of non-diabetic and diabetic rats; assay type: in vivo, rat
Procedure: as §2

[11] = test system: human eye; conditions: cited from earlier work
[12] = better than epinephrine; cited from earlier work
[13] = pKa of the aromatic dihydroxyl group; assay type: physicochemical
[14] = target: T1, bovine serum albumin (BSA) with D-ribose; assay: biochemical
Procedure: as §3

[15] = 2.47% instilled to normal human eyes (Bonomi 1964)

T1 sequence (P02769 25-607): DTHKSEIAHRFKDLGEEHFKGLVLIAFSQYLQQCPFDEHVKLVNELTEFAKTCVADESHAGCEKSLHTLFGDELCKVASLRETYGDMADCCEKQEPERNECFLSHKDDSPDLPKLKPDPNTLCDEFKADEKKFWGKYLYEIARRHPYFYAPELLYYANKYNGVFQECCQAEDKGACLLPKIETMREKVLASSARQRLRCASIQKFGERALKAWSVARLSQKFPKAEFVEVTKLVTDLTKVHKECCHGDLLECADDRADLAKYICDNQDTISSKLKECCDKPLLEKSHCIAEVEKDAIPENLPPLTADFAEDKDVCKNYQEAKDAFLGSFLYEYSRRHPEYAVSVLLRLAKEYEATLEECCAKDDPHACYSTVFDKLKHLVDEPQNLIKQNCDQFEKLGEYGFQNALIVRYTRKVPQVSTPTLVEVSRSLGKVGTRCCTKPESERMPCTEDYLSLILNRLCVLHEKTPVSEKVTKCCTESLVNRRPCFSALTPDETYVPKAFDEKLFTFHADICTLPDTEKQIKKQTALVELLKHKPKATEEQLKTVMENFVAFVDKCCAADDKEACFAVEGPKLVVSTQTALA

CC(C)NCC(O)c1ccc(OC(=O)C(C)(C)C)c(OC(=O)C(C)(C)C)c1 (racemic)
cardiovascular effect [1]: did not produce any unique cardiovascular effect

CNCC(O)c1ccc(O)c(O)c1 (racemic) [(R,S)-Epinephrine]
IC50 [2]: 17 ± 1.1 µM | Imax [2]: 82%

CC(C)NC[C@@H](O)c1ccc(OC(=O)C(C)(C)C)c(OC(=O)C(C)(C)C)c1.Cl [(S)-isoproterenol dipivalate, (S)-isoproterenol dipivalate hydrochloride]
concentration with no visibly noticed cytotoxicity [3]: up to 25 mM | tolerance of PC12 cells ([4]; longer incubation up to 24 h, minimum media (data not shown)): 500 µM | concentration PC12 cells were tolerant to ([4]; short incubation up to 2 hr): up to 500 μM | Time entered in level 4 ([5]; Left eye): 14.5 week and 19.5 week and 19 week (2×) and 16 week and 18.5 week and 20.5 week (2×) and 8 week and 22 week | Time stayed in level 0 ([5]; Left eye): 8 week (6×) and 9 week (3×) and 14 week and 18 week and >30 week (4×) and >23 week and 12 week | Time stayed in level 1 ([5]; Left eye): 1 week (4×) and 2.5 week and 2 week (3×) and 0.5 week (2×) and 3 week (2×) | Time stayed in level 2 ([5]; Left eye): 2 week (5×) and 1 week and 1.5 week (2×) and 0.5 week (2×) and 2.5 week and 5 week | Time stayed in level 3 ([5]; Left eye): 2.5 week and 7.5 week and 5.5 week and 3 week and 3.5 week and 7 week and 8 week and 4 week and 5 week and 6.5 week | Time entered in level 4 ([5]; Right eye): 14.5 week and 19.5 week and 19 week (3×) and 15.5 week and 20.5 week (2×) and 8 week and 22 week | Time stayed in level 0 ([5]; Right eye): 8 week (7×) and 13 week and 18.5 week (2×) and 17 week and >30 week (2×) and 18 week and 14 week and 11.5 week and 12 week | Time stayed in level 1 ([5]; Right eye): 1 week (7×) and 0.5 week (5×) and 2.5 week and 2 week and 0 week | Time stayed in level 2 ([5]; Right eye): 2 week (7×) and 0.5 week (2×) and 1.5 week and 1 week (2×) and 5 week and 2.5 week (2×) | Time stayed in level 3 ([5]; Right eye): 2.5 week and 7.5 week and 7 week (2×) and 4 week (2×) and 3 week and 8 week and 6.5 week (2×) | Time stayed in level 0 (cataract initiation), Av ± STD [5]: 15.0±8.3 week | Time stayed in level 0 (cataract initiation), Av ± STD ([5]; listed as drug): >15.0 ± 8.3 week | Time stayed in level 1, Av ± STD [5]: 1.24 ± 0.82 week | Time stayed in level 2, Av ± STD [5]: 1.88 ± 1.09 week | Time stayed in level 3, Av ± STD [5]: 5.4 ± 1.9 week | Time stayed in level 1, Av ± STD ([5]; listed as prodrug): 1.24±0.82 week | Time stayed in level 2, Av ± STD ([5]; listed as prodrug): 1.88±1.09 week | Time stayed in level 3, Av ± STD ([5]; listed as prodrug): 5.4±1.9 week | percentage of eyes initiating cataract ([5]; eyes initiating at 8.6±1.2 weeks): 53% | percentage of eyes initiating cataract ([5]; eyes initiating at 17.1±3.1 weeks): 26% | percentage of eyes initiating cataract ([5]; eyes initiating at >30 weeks (except one eye >23 weeks)): 21% | time of cataract initiation ([5]; first subgroup, 53% of the eyes): 8.6±1.2 weeks | time of cataract initiation ([5]; second subgroup, 26% of the eyes): 17.1±3.1 weeks | time of cataract initiation ([5]; third subgroup, 21% of the eyes): > 30 weeks | protective effect against H2O2 oxidative stress [6]: did not show any protective effect | blood glucose level (Group II, non-diabetic rats receiving prodrug, 27 week period): 5.1 ± 0.4 mM | blood glucose level (Group IV, diabetic rats receiving prodrug, stabilized level): 27 ± 5 mM | degradation on storage [7]: No degradation

NC[C@@H](O)c1ccc(O)c(O)c1 [(S)-Norepinephrine]
IC50 [2]: 40.3 ± 4.7 µM | Imax [2]: 93%

CC(C)NC[C@@H](O)c1ccc(O)c(O)c1.O=C(O)C(O)C(O)C(=O)O [(S)-Isoproterenol, (S)-isoproterenol bitartrate]
IC50 [2]: 16.8 ± 0.8 µM | Imax [2]: 81% | ocular adverse effects ([8]; eye drop, 10%, human eyes): only brief mild conjunctival hyperemia and irritation | effects on blood pressure and pulse rate [9]: only slight and transient effects on blood pressure and pulse rate | effect on weight gain/loss ([10]; diabetic rats, Group IV vs Group III): no effect | effect on weight gain/loss ([10]; non-diabetic rats, Group II vs Group I): no effect | protective effect against H2O2 oxidative stress [6]: did not show any protective effect | effect on blood glucose level and diabetes (Groups I vs II and III vs IV): does not affect the blood glucose level

CC(C)NC[C@@H](O)c1ccc(O)c(O)c1.Cl [(S)-isoproterenol HCl, (S)-isoproterenol hydrochloride]
effect on intra-ocular pressure ([11]; topical administration of up to 20%, human eye): did not show any indication to lower intra-ocular pressure | ocular adverse effects ([8]; topical administration of 20%, persisted for several hours): marked conjunctival hyperemia and mild miosis

CNCC(O)c1ccc(OC(=O)C(C)(C)C)c(OC(=O)C(C)(C)C)c1 (racemic) [Dipivefrin, (R,S)-epinephrine dipivalate]
enhancement of ocular absorption [12]: 17 time

CC(C)NCC(O)c1ccc(O)c(O)c1 (centres unmarked) [isoproterenol]
pKa [13]: 8.72 ± 0.05

CC(C)NC[C@H](O)c1ccc(O)c(O)c1 [(R)-Isoproterenol]
Imax [2]: 86% | IC50 [14]: 18.1 ± 1.1 µM

NC[C@H](O)c1ccc(O)c(O)c1 [(R)-Norepinephrine]
IC50 [2]: 39.6 ± 3.4 µM | Imax [2]: 92%

CC(C)NCC(O)c1ccc(O)c(O)c1 (racemic) [(R,S)-isoproterenol]
duration of reduction in ocular tension [11, 15]: at least 12 h | reduction in ocular tension [11, 15]: 20%

(R)-Epinephrine
IC50 [2]: 15.5 ± 1.7 µM | Imax [2]: 83%

Source: patent publication US20110060045A1, “ANTI-DIABETIC CATARACT COMPOUNDS AND THEIR USES” (NATIONAL RESEARCH COUNCIL OF CANADA, priority 2006, published 2011)
